≈ marks a conversion by molar mass, not a printed value. Read-outs that look alike come from different tables or passages of the source.
Assays:
[1] = Fenebrutinib concentration in CSF and plasma after 12 weeks of continuous administration (exploratory endpoint); assay type: in vivo, human
From the text: Exploratory Endpoints: Exploratory endpoints included the total number of new T1-hypointense lesions on MRI at weeks 4, 8, and 12; the fenebrutinib concentration in CSF collected at baseline and at or after Week 12; and plasma pharmacokinetics.
Results: Exploratory Endpoint-Evaluation of CSF: Cerebrospinal samples (CSF) were taken from 11 patients following 12 weeks of continuous fenebrutinib administration. A blood plasma sample was taken at the same time for 4 of the 11 patients. The concentration of fenebrutinib in CSF at 12 Weeks was evaluated, and presented in FIG. 5 in comparison to the IC50 of fenebrutinib (active inhibitory threshold) and the IC90 of fenebrutinib (maximal inhibitory threshold) as evaluated in different in vitro assays. From the figure, (a) the mean fenebrutinib CSF concentration is following 12 weeks of continuous fenebrutinib administration; (1) the data for CD63 and CD69 assays was previously presented as Weber M S, et al. at AAN 2021 Virtual Annual Meeting, April 17-22. (P15.091); and (2) the data for the phospho-BTK assay was previously presented in Keaney J, et al. J Neuroimmune Pharmacol 2019; 14:448-461. Analysis of fenebrutinib concentration in CSF, plasma, and the ratio for the four patients for which a plasma sample was taken is provided in Table 11.
CD63 is a myeloid lineage cell activation marker; CD69 is a B-cell activation marker; the phospho-BTK assay evaluates target engagement through inhibition of anti-IgM induced BTK Y223 autophosphorylation in human whole blood. Procedures for performing these three assays may be found in Crawford J J, et al. J Med Chem 2018; 6:2227-2245. Fenebrutinib has a dual mechanism of action, inhibiting both B-cell and myeloid lineage cell activation.

[2] = tested on: inflammatory cytokine production from myeloid cells (including TNF-α); conditions: in vitro cell-based experiments; cited from earlier work
[3] = tested on: CD69 expression on B cells; conditions: in vitro human whole blood assay; previously presented Weber M S, et al. AAN 2021; cited from earlier work
[4] = tested on: new gadolinium-enhancing T1 (T1Gd+) lesions on brain MRI; assay: New gadolinium-enhancing T1 (T1Gd+) lesions on brain MRI, Phase II RMS study (primary endpoint); assay type: in vivo, human
From the text: This Phase II study was undertaken to evaluate the effect of fenebrutinib on brain magnetic resonance imaging (MRI) in participants with RMS. Participants were randomized to receive either fenebrutinib or placebo. In addition to MRI evaluations, participants were also monitored for other clinical outcomes of disease, including disability progression and MS relapse, as described more fully below.
Study Design: This clinical trial comprised a double-blind treatment (DBT) phase, where participants were randomized in a 2:1 ratio to receive either 200 mg BID oral fenebrutinib or non-active placebo, administered for 12 weeks. Participants were directed to self-administer two 100 mg tablets in the morning and two 100 mg tablets in the evening by mouth, for a total dose of 400 mg of fenebrutinib (or placebo) every day.
A total of 109 adults aged 18-55 with RMS were enrolled in the study: 73 in the fenebrutinib arm, and 36 in the placebo arm. […] Accordingly, the analysis of outcome for the double blind phase of the study included 70 patients in the fenebrutinib arm, and 36 patients in the placebo arm.
MRI Measurements: The primary efficacy endpoint for this study was the total number of new gadolinium-enhancing T1 (T1Gd+) lesions on brain MRI measured at Weeks 4, 8, and 12 of administration. The secondary efficacy outcomes were (1) the total number of new or enlarging T2-weighted lesions on brain MRI measured at Weeks 4, 8, and 12, and (2) the proportion of participants free from any new Gd-enhancing T1 lesions and new or enlarging T2-weighted lesions observed on brain MRI at Weeks 4, 8, and 12. Radiologic evaluation for the primary efficacy parameter was performed using a standardized MRI protocol at screening, and at Weeks 4, 8, and 12 for each participant. […]
Results: Primary Endpoint (Total Number of New T1 Gd+ Lesions at Weeks 4, 8, and 12, combined): The primary endpoint of this study was met. In the treatment arm (n=70), a 69% relative reduction in new T1 Gd+ lesions was observed, compared to placebo, with a p value of 0.0022. FIG. 2 provides bar graphs illustrating some of the data in these tables, and providing additional analyses. In this figure, the large arrows indicate the relative reduction (95% confidence interval) of lesions. The proportion of patients with new T1 Gd+ lesions is the number of participants that have a new lesion at that specific visit alone divided by the number of participants with a scan at that specific visit alone at the indicated week. […] There was a 90% reduction and only 3.2% of patients with new T1 Gd+ Lesions lesions at Week 12.

SMILES: C[C@H]1CN(C2COC2)CCN1c1ccc(Nc2cc(-c3ccnc(N4CCn5c(cc6c5CC(C)(C)C6)C4=O)c3CO)cn(C)c2=O)nc1 [Fenebrutinib, (S)-2-(3′-(hydroxymethyl)-1-methyl-5-((5-(2-methyl-4-(oxetan-3-yl)piperazin-1-yl)pyridin-2-yl)amino)-6-oxo-1,6-dihydro-[3,4′-bipyridin]-2′-yl)-7,7-dimethyl-2,3,4,6,7,8-hexahydro-1H-cyclopenta[4,5]pyrrolo[1,2-a]pyrazin-1-one]
- presence in CSF relative to in vitro activity ([1]; after 12 weeks of continuous administration): present in the CSF at levels sufficient to reduce activation of B cells and microglia progenitor cells in vitro
- concentration at 2016 h ([1]; human, csf, po, 200 mg, 11 patients, following 12 weeks of continuous administration, read-out: mean fenebrutinib CSF concentration): 43.1 ng/mL
- concentration at 2016 h ([1]; human, csf, po, 200 mg, n = 4 patients, after 12 weeks of continuous administration, 200 mg BID oral, read-out: CSF concentration, Median (min, max)): 50.2 ng/mL
- Kp at 2016 h ([1]; human, csf, po, 200 mg, n = 4 patients, after 12 weeks of continuous administration, total plasma, read-out: CSF:plasma ratio, Median (min, max)): 0.061
- concentration at 2016 h ([1]; human, plasma, po, 200 mg, n = 4 patients, after 12 weeks of continuous administration, 200 mg BID oral, read-out: Total plasma concentration, Median (min, max)): 691 ng/mL
- inflammatory cytokine production from myeloid cells [2]: reduction of inflammatory cytokine production from myeloid cells
- IC90, CD69 (B-cell activation marker) [3]: 0.0432 µg/mL (≈ 0.065 µM)
- Number of New T1 Gd+ Lesions, Mean (SD), Week 4 ([4]; 200 mg BID oral, Week 4, n = 70, min-max 0-4, placebo 0.389 (0.871)): 0.343 (0.849)
- Number of New T1 Gd+ Lesions, Mean (SD), Week 8 ([4]; 200 mg BID oral, Week 8, n = 67, min-max 0-3, placebo 0.441 (0.960)): 0.045 (0.367)
- Number of New T1 Gd+ Lesions, Mean (SD), Week 12 ([4]; 200 mg BID oral, Week 12, n = 63, min-max 0-1, placebo 0.273 (0.674)): 0.032 (0.177)
- Total Number of New T1Gd+ Lesions ([4]; 200 mg BID oral, Weeks 4, 8, and 12 combined, N = 70, 201 scans, placebo 38): 29
- New T1Gd+ Lesion rate, adjusted ([4]; 200 mg BID oral, Weeks 4, 8, and 12 combined, Negative Binomial regression model, placebo 0.245): 0.077
- New T1Gd+ Lesion rate, unadjusted ([4]; 200 mg BID oral, Weeks 4, 8, and 12 combined, total lesions divided by total number of scans, placebo 0.369): 0.144
- proportion of patients with new T1 Gd+ lesions, Week 12 ([4]; Week 12, participants with a new lesion at that visit divided by participants with a scan at that visit): 3.2%
- patients with new T1 Gd+ lesions after week four ([4]; after week four of treatment): Few patients had new lesions after week four of treatment
- Relative Reduction of total number of new T1 Gd+ lesions, Week 4 ([4]; vs placebo, Week 4, 95% CI −92%, 68%): 22%
- Relative Reduction of total number of new T1 Gd+ lesions, Week 8 ([4]; vs placebo, Week 8, 95% CI 65%, 98%): 92%
- Relative Reduction of total number of new T1 Gd+ lesions, Week 12 ([4]; vs placebo, Week 12, 95% CI 52%, 98%): 90%
- Rate Ratio, adjusted (new T1Gd+ lesions) ([4]; vs placebo, Weeks 4, 8, and 12 combined, 95% CI (0.149, 0.658)): 0.313
- Relative Reduction in new T1 Gd+ lesions ([4]; vs placebo, Weeks 4, 8, and 12 combined, 95% CI (34%, 85%), p-value 0.0022): 69%
- Relative Reduction of total number of new T1 Gd+ lesions, Weeks 8 and 12 ([4]; vs placebo, Weeks 8 and 12): 92%

— US20260315462A1, “METHODS OF TREATING RELAPSING MULTIPLE SCLEROSIS USING AN INHIBITOR OF BRUTON'S TYROSINE KINASE” (Genentech, Inc., priority 2023, published 2026)
